One assay concerns the target human PDE2A1 (Homo sapiens (Human), UniProt O00408). As to the kind of experiment: PDE selectivity IMAP FP assay, human PDE2A1. It counts as biochemical. Particulars: Human PDE2. The procedure, abridged:
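IMAP fluorescence polarization assay; PDE2 substrate 50 nM FAM-cAMP containing 1000 nM cGMP, enzyme diluted for 20% substrate conversion, in 10 mM Tris HCl pH 7.2, 10 mM MgCl2, 1 mM DTT. Reaction 60 min at room temperature, stopped with IMAP binding solution; polarization read after 1 h. Ki reported.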

A further assay deals with Rhesus PDE2A3 (Macaca mulatta, UniProt B3VTJ2). The assay can be described thus: PDE2 fluorescence polarization (IMAP FP) assay, rhesus PDE2A3. It counts as biochemical, rhesus macaque. The protocol: A Labcyte Echo 555 (Labcyte, Sunnyvale, Calif.) is used to dispense 200 nL from each well of the titration plate to the 384 well assay plate. Ten microliters of a solution of enzyme (1/2000 final dilution from aliquots; sufficient to produce 20% substrate conversion) was added to the assay plate. Next 10 uL of a separate solution of the substrate FAM-labeled cAMP (50 nM final concentration product # R7506 from Molecular Devices) and the activator cGMP (1 uM final concentration), prepared in the assay buffer (10 mM Tris HCl, pH 7.2, 10 mM MgCl2, 0.05% NaN3 0.01% Tween-20, and 1 mM DTT) was added to the assay plate and shaken to mix. The reaction is allowed to proceed at room temperature for 60 minutes. A binding solution is then made from the kit components, comprised of 80% Solution A, 20% Solution B and binding reagent at a volume of 1/600 the total binding solution. The enzymatic reaction is stopped by addition of 60 μL of the binding solution to each well of the assay plates and the plates are sealed and shaken for 30 seconds. The plate was incubated at room temperature for at least one hour prior to determining the fluorescence polarization (FP). The parallel and perpendicular fluorescence of each well of the plate was measured using a Tecan Genios Pro plate reader (Tecan, Switzerland) or Perkin Elmer EnVision™ plate reader (Waltham, Mass.). Fluorescence polarization (mP) was calculated from the parallel (S) and perpendicular (P) fluorescence of each sample well and the analogous values for the median control well, containing only substrate (So and Po), using the following equation: Polarization (mP)=1000*(S/So−P/Po)/(S/So+P/Po).
Dose-inhibition profiles for each compound were characterized by fitting the mP data to a four-parameter equation given below.
An apparent (KM) for FAM-labeled cAMP of ˜10 uM was used.
On the technique in general: Polarisation of emitted light reports the rotation of a fluorescent probe.

[1] abbreviates: Lab B, read-out: Human PDE2 Ki (nM) Lab B.
[2] abbreviates: Lab B, read-out: Rhesus PDE2 Ki (nM) Lab B.
[3] abbreviates: Lab A, read-out: Human PDE2 Ki (nM) Lab A.
[4] abbreviates: Lab A, read-out: Rhesus PDE2 Ki (nM) Lab A.

The term Ki denotes the equilibrium dissociation constant of an inhibitor or competing ligand from its target.

Molecules are shown by their SMILES. Read-outs that look alike come from different tables or passages of the source.

Sequence of human PDE2A1 (O00408 other isoform, or with tags, fused parts or gaps): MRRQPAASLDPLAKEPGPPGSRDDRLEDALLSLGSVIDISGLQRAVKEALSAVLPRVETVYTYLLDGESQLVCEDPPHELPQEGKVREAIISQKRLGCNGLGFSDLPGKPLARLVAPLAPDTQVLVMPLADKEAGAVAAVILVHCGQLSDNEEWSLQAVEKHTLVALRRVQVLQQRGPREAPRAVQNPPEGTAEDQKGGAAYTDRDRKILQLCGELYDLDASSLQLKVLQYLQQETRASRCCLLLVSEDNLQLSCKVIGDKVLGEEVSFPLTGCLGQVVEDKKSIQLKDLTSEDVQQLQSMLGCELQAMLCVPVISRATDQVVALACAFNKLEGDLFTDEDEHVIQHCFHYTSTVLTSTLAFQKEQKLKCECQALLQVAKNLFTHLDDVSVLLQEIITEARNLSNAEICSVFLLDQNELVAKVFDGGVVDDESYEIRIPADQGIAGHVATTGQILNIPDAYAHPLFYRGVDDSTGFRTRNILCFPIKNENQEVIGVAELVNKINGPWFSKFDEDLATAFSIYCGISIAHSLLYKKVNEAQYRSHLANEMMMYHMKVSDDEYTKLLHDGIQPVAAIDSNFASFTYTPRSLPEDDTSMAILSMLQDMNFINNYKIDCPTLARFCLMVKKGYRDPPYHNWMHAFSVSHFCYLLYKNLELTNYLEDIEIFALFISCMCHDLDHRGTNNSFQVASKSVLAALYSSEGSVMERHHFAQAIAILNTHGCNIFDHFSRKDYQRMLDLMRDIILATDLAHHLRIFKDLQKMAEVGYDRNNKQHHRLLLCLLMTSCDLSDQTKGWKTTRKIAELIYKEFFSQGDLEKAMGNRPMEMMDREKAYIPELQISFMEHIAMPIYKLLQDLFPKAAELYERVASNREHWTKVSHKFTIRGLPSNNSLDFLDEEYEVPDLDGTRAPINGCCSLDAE
Sequence of Rhesus PDE2A3 (B3VTJ2 1-941): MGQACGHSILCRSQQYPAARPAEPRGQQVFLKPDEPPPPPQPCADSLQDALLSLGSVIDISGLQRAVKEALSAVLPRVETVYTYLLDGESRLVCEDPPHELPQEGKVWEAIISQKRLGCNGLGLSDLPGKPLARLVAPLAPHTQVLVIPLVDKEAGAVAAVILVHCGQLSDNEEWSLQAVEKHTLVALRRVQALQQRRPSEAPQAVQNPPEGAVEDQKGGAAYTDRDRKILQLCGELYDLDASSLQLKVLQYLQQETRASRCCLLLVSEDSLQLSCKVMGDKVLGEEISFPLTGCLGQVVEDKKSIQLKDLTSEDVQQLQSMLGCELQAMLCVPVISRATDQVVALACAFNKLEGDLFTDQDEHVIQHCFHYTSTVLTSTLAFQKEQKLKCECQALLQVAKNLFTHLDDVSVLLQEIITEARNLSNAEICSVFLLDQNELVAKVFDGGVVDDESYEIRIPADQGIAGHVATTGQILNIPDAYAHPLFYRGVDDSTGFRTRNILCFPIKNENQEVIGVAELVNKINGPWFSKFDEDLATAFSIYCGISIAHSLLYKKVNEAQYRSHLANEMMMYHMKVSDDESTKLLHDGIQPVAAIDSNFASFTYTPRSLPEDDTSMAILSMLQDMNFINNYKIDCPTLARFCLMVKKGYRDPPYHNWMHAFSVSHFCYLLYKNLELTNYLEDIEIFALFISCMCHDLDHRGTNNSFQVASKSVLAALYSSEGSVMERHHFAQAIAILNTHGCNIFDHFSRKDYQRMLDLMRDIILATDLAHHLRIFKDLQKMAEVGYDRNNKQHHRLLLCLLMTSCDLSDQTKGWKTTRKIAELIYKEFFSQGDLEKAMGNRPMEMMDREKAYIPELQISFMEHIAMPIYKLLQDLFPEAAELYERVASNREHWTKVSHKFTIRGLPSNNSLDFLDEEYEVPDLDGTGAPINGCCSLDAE

For `C[C@H](c1ccc(C(F)(F)F)c(F)c1)n1nc(CF)c2c(=O)[nH]c(O)nc21` (mixture of isomers) [Example 34, (R)- and (S)-1-(1-(3-Fluoro-4-(trifluoromethyl)phenyl)ethyl)-3-(fluoromethyl)-6-hydroxy-H-pyrazolo[3,4-d]pyrimidin-4(5H)-one], the inhibitory constant (Ki) amounted to 2.1 nM at human PDE2A1 (setting [1]) and 2.4 nM on Rhesus PDE2A3 (setting [2]).
Take `CC(c1ccc(OC(F)(F)F)c(F)c1)n1nc(CC(F)(F)F)c2c(=O)[nH]c(O)nc21` (racemic) [Example 229, 1-(1-(3-Fluoro-4-(trifluoromethoxy)phenyl)ethyl)-6-hydroxy-3-(2,2,2-trifluoroethyl)-1H-pyrazolo[3,4-d]pyrimidin-4(5H)-one]: the inhibition constant (Ki) at human PDE2A1 (setting [1]) was found to be 9.6 nM; at Rhesus PDE2A3 (setting [2]), 13 nM.
For `CC(c1ccc(OC(F)(F)F)cc1)n1nc(CC(F)(F)F)c2c(=O)[nH]c(O)nc21` (racemic) [Example 230, 6-Hydroxy-3-(2,2,2-trifluoroethyl)-1-(1-(4-(trifluoromethoxy)phenyl)ethyl)-1H-pyrazolo[3,4-d]pyrimidin-4(5H)-one], the values for the inhibitory constant (Ki) on human PDE2A1 (setting [1]) and at Rhesus PDE2A3 (setting [2]) were 13 nM and 21 nM, respectively.
As for `CC(c1ccc(S(F)(F)(F)(F)F)cc1)n1nc(CC(F)(F)F)c2c(=O)[nH]c(O)nc21` (racemic) [Example 231, 6-Hydroxy-3-(2,2,2-trifluoroethyl)-1-(1-(4-(pentafluorosulfanyl)phenyl)ethyl)-1H-pyrazolo[3,4-d]pyrimidin-4(5H)-one], the Ki turned out to be 18 nM at human PDE2A1 (setting [1]) and 25 nM at Rhesus PDE2A3 (setting [2]).
Consider `CC(c1ccc(C(F)(F)F)c(F)c1)n1nc(CO)c2c(=O)[nH]c(O)nc21` (single isomer, unassigned) [Example 1], for which the inhibition constant (Ki) was found to be 11 nM at human PDE2A1 (setting [1]) and 13 nM at Rhesus PDE2A3 (setting [2]).
Regarding `CC(C)C(c1ccc(C(F)(F)F)cc1)n1nc(CO)c2c(=O)[nH]c(O)nc21` (single isomer, unassigned) [Example 13, (S)- or (R)-6-Hydroxy-3-(hydroxymethyl)-1-(2-methyl-1-(4-(trifluoromethyl)phenyl)propyl)-1H-pyazolo[3,4-d]pyrimidin-4(5H)-one], the inhibition constant (Ki) at human PDE2A1 (setting [1]) was found to be 8.3 nM; on Rhesus PDE2A3 (setting [2]), 9.2 nM.
In the case of `CC(c1ccc(C(F)(F)F)cc1)n1nc(CO)c2c(=O)[nH]c(O)nc21` (single isomer, unassigned) [Example 19, (S)- or (R)-6-Hydroxy-3-(hydroxymethyl)-1-{1-[4-(trifluoromethyl)phenyl]ethyl}-1,5-dihydro-4H-pyrazolo[3,4-d]pyrimidin-4-one], the inhibition constant Ki at human PDE2A1 (setting [3]) was 9 nM; on human PDE2A1 (setting [1]) it was 24 nM; on Rhesus PDE2A3 (setting [4]) it was 14 nM; on Rhesus PDE2A3 (setting [2]) it was 20 nM.
`CC(c1ccc(S(F)(F)(F)(F)F)cc1)n1nc(CO)c2c(=O)[nH]c(O)nc21` (single isomer, unassigned) [Example 21, (S)- or (R)-6-Hydroxy-3-(hydroxymethyl)-1-{1-[4-(pentafluorosulfanyl)phenyl]ethyl}-1,5-dihydro-4H-pyrazolo[3,4-d]pyrimidin-4-one]: the Ki on human PDE2A1 (setting [3]) was 13 nM; at human PDE2A1 (setting [1]), 28 nM; at Rhesus PDE2A3 (setting [4]), 20 nM; on Rhesus PDE2A3 (setting [2]), 27 nM.
Turning to `CC(C)C(c1ccc(C(F)(F)F)c(F)c1)n1nc(CO)c2c(=O)[nH]c(O)nc21` (single isomer, unassigned) [Example 27, (R)- or (S)-1-(1-(3-Fluoro-4-(trifluoromethyl)phenyl)-2-methylpropyl)-6-hydroxy-3-(hydroxymethyl)-1H-pyrazolo[3,4-d]pyrimidin-4(5H)-one], the inhibitory constant (Ki) was determined as 7 nM on human PDE2A1 (setting [1]) and 5.2 nM at Rhesus PDE2A3 (setting [2]).
In the case of `CC(C)C(c1ccc(OC(F)(F)F)cc1)n1nc(CF)c2c(=O)[nH]c(O)nc21` (single isomer, unassigned) [Example 42, (R)- or (S)-3-(Fluoromethyl)-6-hydroxy-1-(2-methyl-1-(4-(trifluoromethoxy)phenyl)propyl)-1H-pyrazolo[3,4-d]pyrimidin-4(5H)-one], the inhibitory constant (Ki) at human PDE2A1 (setting [1]) turned out to be 14 nM; on Rhesus PDE2A3 (Rhesus PDE2 Ki (nM) Lab B, Lab B) it was 16 nM.
As for `CC(C)C(c1ccc(OC(F)(F)F)cc1)n1nc(CF)c2c(=O)[nH]c(O)nc21` (single isomer, unassigned) [Example 43, (S)- or (R)-3-(Fluorornethyl)-6-hydroxy-1-(2-methyl-1-(4-(trifluoromethoxy)phenyl)propyl)-1H-pyrazolo[3,4-d]pyrimidin-4(5H)-one], the Ki at human PDE2A1 (setting [1]) amounted to 5.3 nM; on Rhesus PDE2A3 (setting [2]), 4.7 nM.
For the compound `O=c1[nH]c(O)nc2c1c(CF)nn2C(c1ccc(OC(F)(F)F)c(F)c1)C1CC1` (single isomer, unassigned) [Example 44], the Ki at human PDE2A1 (setting [1]) was 10 nM; at Rhesus PDE2A3 (setting [2]) it was 9.8 nM.
Turning to `O=c1[nH]c(O)nc2c1c(CF)nn2C(c1ccc(OC(F)(F)F)c(F)c1)C1CC1` (single isomer, unassigned) [Example 45], the Ki on human PDE2A1 (setting [1]) is 28 nM; on Rhesus PDE2A3 (setting [2]), 29 nM.
`CC(C)C(c1ccc(C(F)(F)F)c(F)c1)n1nc(CF)c2c(=O)[nH]c(O)nc21` (single isomer, unassigned) [Example 55]: the Ki at human PDE2A1 (setting [1]) is 0.96 nM; at Rhesus PDE2A3 (setting [2]), 1.3 nM.
`CC(C)C(c1ccc(C(F)(F)F)c(F)c1)n1nc(CF)c2c(=O)[nH]c(O)nc21` (single isomer, unassigned) [Example 56]: the Ki turned out to be 37 nM at human PDE2A1 (setting [1]) and 36 nM at Rhesus PDE2A3 (setting [2]).
As to `CN(C)c1nc2c(c(CO)nn2C(c2ccc(C(F)F)cc2)C2CC2)c(=O)[nH]1` (single isomer, unassigned) [Example 62], the Ki came out at 0.27 nM at human PDE2A1 (setting [1]) and 0.28 nM at Rhesus PDE2A3 (setting [2]).
Turning to `CC(C)C(c1ccc(C(F)(F)F)cc1)n1nc(CO)c2c(=O)[nH]c(N(C)C)nc21` (single isomer, unassigned) [Example 64, (R)- or (S)-6-Dimethylamino)-3-(hydroxymethyl)-1-(2-methyl-1-(4-(trifluoromethyl)phenyl)propyl)-1H-pyrazolo[3,4-d]pyrimidin-4(5H)-one], the Ki worked out at 0.29 nM at human PDE2A1 (setting [1]) and 0.39 nM at Rhesus PDE2A3 (setting [2]).
With `CC(C)C(c1ccc(C(F)(F)F)cc1)n1nc(CO)c2c(=O)[nH]c(N(C)C)nc21` (single isomer, unassigned) [Example 65, (S)- or (R)-6-Dimethylamino)-3-(hydroxymethyl)-1-(2-methyl-1-(4-(trifluoromethyl)phenyl)propyl)-1H-pyrazolo[3,4-d]pyrimidin-4(5H)-one], the Ki on human PDE2A1 (setting [1]) amounted to 0.069 nM; on Rhesus PDE2A3 (setting [2]) it was 0.076 nM.
For `CC(c1ccc(C(C)(C)C)cc1)n1nc(CO)c2c(=O)[nH]c(N(C)C)nc21` (single isomer, unassigned) [Example 66, (R)- or (S)-1-(1-(4-tert-Butylphenyl)ethyl)-6-(dimethylamino)-3-(hydroxymethyl)-1H-pyrazolo[3,4-d]pyrimidin-4(5H)-one], the Ki at human PDE2A1 (setting [1]) was determined as 6.1 nM; on Rhesus PDE2A3 (setting [2]), 12 nM.
The matching figures for `CC(c1ccc(C(F)(F)F)c(F)c1)n1nc(CO)c2c(=O)[nH]c(N(C)C)nc21` (single isomer, unassigned) [Example 68, (R)- or (S)-6-(Dimethylamino)-1-(1-(3-fluoro-4-(trifluoromethyl)phenyl)ethyl)-3-(hydroxymethyl)-1H-pyrazolo[3,4-d]pyrimidin-4(5H)-one]: 7.1 nM and 11 nM.
As to `CC(c1ccc(C(F)(F)F)c(F)c1)n1nc(CO)c2c(=O)[nH]c(N(C)C)nc21` (single isomer, unassigned) [Example 69, (S)- or (R)-6-(Dimethylamino)-1-(1-(3-fluoro-4-(trifluoromethyl)phenyl)ethyl)-3-(hydroxymethyl)-1H-pyrazolo[3,4-d]pyrimidin-4(5H)-one], the Ki at human PDE2A1 (setting [1]) and on Rhesus PDE2A3 (setting [2]) was 0.27 nM each time.
Take `CC(c1ccc(CC(F)(F)F)cc1)n1nc(CO)c2c(=O)[nH]c(N(C)C)nc21` (single isomer, unassigned) [Example 71, (S)- or (R)-6-(Dimethylamino)-3-(hydroxymethyl)-1-(1-(4-(2,2,2-trifluoroethyl)phenyl)ethyl)-1H-pyrazolo[3,4-d]pyrimidin-4(5H)-one]: the Ki at human PDE2A1 (setting [1]) was 0.75 nM; on Rhesus PDE2A3 (setting [2]), 0.95 nM.
Turning to `C[C@@H](c1ccc(C(F)(F)F)cc1)n1nc(COCc2ccccc2)c2c(=O)[nH]c(O)nc21` [Example 303, (S)-3-((Benzyloxy)methyl)-6-hydroxy-1-(1-(4-(trifluoromethyl)phenyl)ethyl)-1,5-dihydro-4H-pyrazolo[3,4-d]pyrimidin-4-one], the inhibitory constant (Ki) on Rhesus PDE2A3 (setting [2]) worked out at 206 nM.

Source of the values: US10174037B2, “Dihydropyrazolopyrimidinone compounds as PDE2 inhibitors” (Merck Sharp & Dohme Corp., priority 2015, dated 2019).
